From US8906828B2, “Compositions and methods for post emergent weed control with clethodim and gibberellic acid” (Valent U.S.A. Corporation, priority 2012, dated 2014)

Experiments:
[1] = system: Glyphosate resistant corn; assay: Clethodim and GA3 treatments on planted glyphosate resistant corn, % control (Example 2); format: in vivo
Description: A further study was performed in order to confirm the effect clethodim and GA3 treatments have on corn. Glyphosate resistant corn was planted with a conventional four-row planter. Treatments were applied 28 days after the plantings.
The percent corn control was evaluated at […] days following the treatments. Effect of Clethodim and GA3 Treatments on corn (% control).

Johnsongrass = assay: Post emergent treatment of plots with abundant Johnsongrass growth, % control (Example 1); format: in vivo, Sorghum halepense
Description: In order to determine the efficacy of combinations of clethodim and GA3, numerous treatments were applied to plots in an area with abundant Johnsongrass growth.
The percent control of Johnsongrass plants was evaluated at 7, 18 and 28 days following the treatment. Effect of Clethodim and GA3 Treatments on Johnsongrass (% control).”
The percent control refers to the amount of dead tissue on the plants present. It would be dead plants plus desiccated foliage on partially killed plants.

Compound	Effect of GA3 on the activity of clethodim on corn ([1]; presence of GA3)	Effect of GA3 on the activity of clethodim on Johnsongrass (Johnsongrass; seven days following treatment, versus clethodim alone)	Corn % control 6 DAT ([1]; Clethodim 32 gm ai/a, 0.25% v/v non-ionic surfactant and 2.5 lb/acre ammonium sulfate, 6 DAT)	Corn % control 13 DAT ([1]; Clethodim 32 gm ai/a, 0.25% v/v non-ionic surfactant and 2.5 lb/acre ammonium sulfate, 13 DAT)	Corn % control 29 DAT ([1]; Clethodim 32 gm ai/a, 0.25% v/v non-ionic surfactant and 2.5 lb/acre ammonium sulfate, 29 DAT)	Johnsongrass % control 7 DAT (Johnsongrass; Clethodim 32 x g ai/a (9 fl oz/a of Selectmax), 0.25% v/v non-ionic surfactant and 2.5 lb/acre AMS, 7 DAT)	Johnsongrass % control 18 DAT (Johnsongrass; Clethodim 32 x g ai/a (9 fl oz/a of Selectmax), 0.25% v/v non-ionic surfactant and 2.5 lb/acre AMS, 18 DAT)	Johnsongrass % control 28 DAT (Johnsongrass; Clethodim 32 x g ai/a (9 fl oz/a of Selectmax), 0.25% v/v non-ionic surfactant and 2.5 lb/acre AMS, 28 DAT)
C=C1C[C@]23C[C@@]1(O)CC[C@H]2[C@@]12C=C[C@H](O)[C@@](C)(C(=O)O1)[C@H]2[C@@H]3C(=O)O [GA3, Gibberellic acid]	significantly increased	more than doubles	–	–	–	–	–	–
CCSC(C)CC1CC(=O)C(C(CC)=NOC/C=C/Cl)=C(O)C1 (centres unmarked) [Clethodim, 2-[1-[[[(2E)-3-chloro-2-propen-1-yl]oxy]imino]propyl]-5-[2-(ethylthio)propyl]-3-hydroxy-2-cyclohexen-1-one]	–	–	48.33%	88.33%	96.00%	37.21%	85.66%	89.26%
